Measured values taken from patent US20200031778A1, “NOVEL 5-SUBSTITUTED IMIDAZOLYLMETHYL DERIVATIVES” (Bayer CropScience Aktiengesellschaft, priority 2016, published 2020).

Legend:
[1] = Log P by HPLC on reversed phase columns (EEC directive 79/831 Annex V.A8; methods [a], [b], [c]); assay type: physicochemical; conditions: reversed phase HPLC column; HPLC on reversed phase columns, method [a]
Procedure, shortened: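 Log P derived from retention times, interpolated linearly between bracketing straight-chain alkan-2-ones (3–16 carbons) of known Log P. Eluents ran acetonitrile 10% to 95% against water with 0.1% formic acid ([a], acidic), 0.001 M ammonium acetate ([b], neutral) or 0.1% phosphoric acid ([c], acidic); UV read-out.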

Puccinia recondita = test: Example B: in vivo preventive test on Puccinia recondita (brown rust on wheat); conditions: 264 h, 500 ppm of active ingredient, wheat plants, preventive spray, evaluated 11 days after inoculation, read-out: efficacy
Procedure: Example B: In Vivo Preventive Test on Puccinia Recondita (Brown Rust on Wheat)
(§1) The active ingredients were made soluble and homogenized in a mixture of Dimethyl sulfoxide/Acetone/Tween® 80 and then diluted in water to the desired concentration.
(§2) The young plants of wheat were treated by spraying the active ingredient prepared as described above. Control plants were treated only with an aqueous solution of Acetone/Dimethyl sulfoxide/Tween® 80.
After 24 hours, the plants were contaminated by spraying the leaves with an aqueous suspension of Puccinia recondita spores. The contaminated wheat plants were incubated for 24 hours at 20° C. and at 100% relative humidity and then for 10 days at 20° C. and at 70-80% relative humidity.
(§3) The test was evaluated 11 days after the inoculation. 0% means an efficacy which corresponds to that of the control plants while an efficacy of 100% means that no disease was observed.

Septoria tritici = test: Example C: in vivo preventive test on Septoria tritici (leaf spot on wheat); conditions: Zymoseptoria tritici, 576 h; 500 ppm of active ingredient; wheat plants, preventive spray; evaluated 24 days after inoculation; read-out: efficacy
Procedure: Example C: In Vivo Preventive Test on Septoria Tritici (Leaf Spot on Wheat)
as §1, §2
After 24 hours, the plants were contaminated by spraying the leaves with an aqueous suspension of Septoria tritici spores. The contaminated wheat plants were incubated for 72 hours at 18° C. and at 100% relative humidity and then for 21 days at 20° C. and at 90% relative humidity.
The test was evaluated 24 days after the inoculation. 0% means an efficacy which corresponds to that of the control plants while an efficacy of 100% means that no disease was observed.

Sphaerotheca fuliginea = test: Example D: in vivo preventive test on Sphaerotheca fuliginea (powdery mildew on cucurbits); conditions: Podosphaera fuliginea, 360 h; 500 ppm of active ingredient; gherkin plants, preventive spray; evaluated 15 days after inoculation; read-out: efficacy
Procedure: Example D: In Vivo Preventive Test on Sphaerotheca Fuliginea (Powdery Mildew on Cucurbits)
as §1
The young plants of gherkin were treated by spraying the active ingredient prepared as described above. Control plants were treated only with an aqueous solution of Acetone/Dimethyl sulfoxide/Tween® 80.
After 24 hours, the plants were contaminated by spraying the leaves with an aqueous suspension of Sphaerotheca fuliginea spores. The contaminated gherkin plants were incubated for 72 hours at 18° C. and at 100% relative humidity and then for 12 days at 20° C. and at 70-80% relative humidity.
The test was evaluated 15 days after the inoculation. 0% means an efficacy which corresponds to that of the control plants while an efficacy of 100% means that no disease was observed.

Uromyces appendiculatus = test: Example E: in vivo preventive test on Uromyces appendiculatus (bean rust); conditions: 264 h, 500 ppm of active ingredient, bean plants, preventive spray, evaluated 11 days after inoculation, read-out: efficacy
Procedure: Example E: In Vivo Preventive Test on Uromyces Appendiculatus (Bean Rust)
as §1
The young plants of bean were treated by spraying the active ingredient prepared as described above. Control plants were treated only with an aqueous solution of Acetone/Dimethyl sulfoxide/Tween® 80.
After 24 hours, the plants were contaminated by spraying the leaves with an aqueous suspension of Uromyces appendiculatus spores. The contaminated bean plants were incubated for 24 hours at 20° C. and at 100% relative humidity and then for 10 days at 20° C. and at 70-80% relative humidity.
as §3

Compound	chromatographic logP [1]	pest or weed control at 500 ppm (Puccinia recondita) [%]	pest or weed control at 500 ppm (Septoria tritici) [%]	pest or weed control at 500 ppm (Sphaerotheca fuliginea) [%]	pest or weed control at 500 ppm (Uromyces appendiculatus) [%]
CCCCC(O)(Cn1cncc1C#N)c1ccc(Cl)cc1 (stereo not drawn) [I-256, 3-[2-(4-chlorophenyl)-2-hydroxy-hexyl]imidazole-4-carbonitrile]	2.86	80 to 89	80 to 89	90 to 100	90 to 100
CC(O)(Cn1cncc1F)c1cnc(Oc2ccc(Br)cc2)cc1C(F)(F)F (stereo not drawn) [I-210, 2-[6-(4-bromophenoxy)-4-(trifluoromethyl)-3-pyridyl]-1-(5-fluoroimidazol-1-yl)propan-2-ol]	2.37	70 to 79	90 to 100	90 to 100	90 to 100
N#Cc1cncn1CC(O)c1ccc(Oc2ccc(Br)cc2)cc1Cl (stereo not drawn) [I-40, 3-[2-[4-(4-bromophenoxy)-2-chloro-phenyl]-2-hydroxy-ethyl]imidazole-4-carbonitrile]	3.31	90 to 100	80 to 89	90 to 100	90 to 100
